Earlier results in patent US20260110003A1 (Solugen, Inc., priority 2022, published 2026).
One block for each molecule: values may come before it.

What was measured:
[1] = for Prefers Phase: aqueous (Aq) or organic (Org) phase in the MPER; for LogP: partition coefficient, <0 preference for aqueous, >0 for organic
[2] = relative to VvSucA

Molecule: CC(=O)C(=O)O [Pyruvate ion]
Prefers Phase [1]: Aq
LogP [1]: <<0

Molecule: CC=O [Acetaldehyde]
Prefers Phase [1]: Aq
LogP [1]: −0.34

Molecule: CCO [Ethanol]
Prefers Phase [1]: Both

B1: ZmPDC: Zymomonas mobilis pyruvate decarboxylase (protein, UniProt P06672 1-568, looked up)
Pyruvate decarboxylase: MSYTVGTYLAERLVQIGLKHHFAVAGDYNLVLLDNLLLNKNMEQVYCCNELNCGFSAEGYARAKGAAAAVVTYSVGALSAFDAIGGAYAENLPVILISGAPNNNDHAAGHVLHHALGKTDYHYQLEMAKNITAAAEAIYTPEEAPAKIDHVIKTALREKKPVYLEIACNIASMPCAAPGPASALFNDEASDEASLNAAVEETLKFIANRDKVAVLVGSKLRAAGAEEAAVKFADALGGAVATMAAAKSFFPEENPHYIGTSWGEVSYPGVEKTMKEADAVIALAPVFNDYSTTGWTDIPDPKKLVLAEPRSVVVNGIRFPSVHLKDYLTRLAQKVSKKTGALDFFKSLNAGELKKAAPADPSAPLVNAEIARQVEALLTPNTTVIAETGDSWFNAQRMKLPNGARVEYEMQWGHIGWSVPAAFGYAVGAPERRNILMVGDGSFQLTAQEVAQMVRLKLPVIIFLINNYGYTIEVMIHDGPYNNIKNWDYAGLMEVFNGNGGYDSGAGKGLKAKTGGELAEAIKVALANTDGPTLIECFIGREDCTEELVKWGKRVAAANSRKPVNKLL
more acetoin produced than VvSucA [2]: 57%

Next, values leading:

Prefers Phase [1]: Org
LogP [1]: 0.4
Molecule: CCOC(=O)C(C)=O [Ethyl Pyruvate]

Prefers Phase [1]: Aq
LogP [1]: −0.3
Molecule: CC(=O)C(=O)O [Pyruvic Acid]
